Tests used:
Type in all cases: cell-based, human
[1] = test system: AKT and S6 phosphorylation in DU145 cells; experiment: RNASE4-induced phosphorylation of AKT and S6 (immunoblot); conditions: then 1 μg/ml RNASE4 5 minutes
Experimental: (§1) FIGS. 10A-E. RNASE4 induces prostate cancer cell proliferation and phosphorylation of AKT and S6. (A and B) Exogenous RNASE4 (1 μg/ml) stimulates cell proliferation (A) and cell cycle progression (B) of DU145 cells cultured in the presence of 2% FBS. Cell numbers were determined by MTT assay. Cell cycle status was determined by flow cytometry after 24 hour incubation with RNASE4. (C) Time course of AKT and S6 phosphorylation of serum-starved DU145 cells by RNASE4 (1 μg/ml). Left panels, immunoblots; right panels, quantification of p-AKT and p-S6 normalized to total AKT and S6 by Image J analysis. […] Cells were pre-incubated with the inhibitors at the indicated concentrations for 1 hour prior to be stimulated by 1 μg/ml of RNASE4 for 5 minutes. Top panels, immunoblots; bottom panels, Image J quantification of p-AKT and p-S6 normalized to total AKT and S6. (E) Effect of AKT inhibitor MK-2206, PI3K inhibitors Wortmannin and LY294002, and mTOR inhibitor Rapamycin on RNASE4-induced cell proliferation. DU145 cells were serum-starved overnight, incubated with the inhibitors for 1 hour, and then treated with RNASE4 (1 μg/ml) for three days. Cell numbers were determined by MTT assay. Data shown are from a representative experiments in triplicates of 3 independent repeats. Error bars indicate SEM. **P≤0.01, by unpaired two-tailed Student's t test.
(§2) FIGS. 12A-F. RNASE4 induces AXL phosphorylation. (A) Human phospho-receptor tyrosine kinase (RTK) antibody array analysis. Serum-starved DU145 cells were treated with or without 1 μg/ml of RNASE4 for 5 minutes. A total of 1.5 mg cell lysate protein was blotted on each array membrane. […] (B) Immunoblot analysis of RNASE4-stimulated AXL phosphorylation. DU145 cells were serum-starved overnight and treated with 1 μg/ml of RNASE4 for the indicated time. Cell lysates were analyzed by antibodies against total AXL and phospho-AXL, with β-actin as the loading control. Left panels, immunoblots; right panel, Image J quantification of p-AXL normalized to total AXL. (C) Immunoblot analysis of phospho-AXL in response to stimulation by ANG, RNase A, and RNASE4. DU145 cells were serum-starved overnight and treated with 1 μg/ml of ANG, RNase A, or RNASE4 for 15 minutes. Left panels, immunoblots; right panel, quantification. (D) Effect of AXL inhibitor R428 on RNASE4-induced cell proliferation. Serum-starved DU145 cells were incubated with 1 or 3 μM R428 for 3 hours and then stimulated by 1 μg/ml of RNASE4 for 3 days. Cell numbers were determined by MTT assay. Data shown are means±SEM of a representative experiment (in triplicates) of 3 independent repeats. **P≤0.01 and ***P≤0.001, by unpaired two-tailed Student's t test. (E) Effect of AXL inhibitor R428 on RNASE4-induced AKT and P6 phosphorylation. Serum-starved DU145 cells were incubated with 1 or 3 μM R428 for 3 hours and then stimulated by 1 μg/ml of RNASE4 for 5 minutes. Cell lysates were analyzed for AKT and P6 phosphorylation by immunoblotting. Top panels, immunoblots; bottom panels, quantification of phospho-AKT and phospho-S6 by Image J analyses normalized to total AKT and P6, respectively. (F) Schematic presentation of proposed involvement of AXL in RNASE4-stimulated cellular events.

DU145 cells = experiment: RNASE4-induced cell proliferation (MTT assay)
Experimental: as §1
FIGS. 12A-F. RNASE4 induces AXL phosphorylation. (A) Human phospho-receptor tyrosine kinase (RTK) antibody array analysis. Serum-starved DU145 cells were treated with or without 1 μg/ml of RNASE4 for 5 minutes. […] Cell lysates were analyzed by antibodies against total AXL and phospho-AXL, with β-actin as the loading control. Left panels, immunoblots; right panel, Image J quantification of p-AXL normalized to total AXL. […] Left panels, immunoblots; right panel, quantification. […] Cell numbers were determined by MTT assay. […] Cell lysates were analyzed for AKT and P6 phosphorylation by immunoblotting. Top panels, immunoblots; bottom panels, quantification of phospho-AKT and phospho-S6 by Image J analyses normalized to total AKT and P6, respectively. […]

PC-3 cells = experiment: RNASE4-induced cell proliferation (MTT assay)
Experimental: FIGS. 11A-F. RNASE4 induces PC-3 cell proliferation and phosphorylation of AKT and S6. (A) Exogenous RNASE4 (1 μg/ml) stimulates PC-3 cells proliferation in the presence of 2% FBS. Cell numbers were determined by MTT assay. (B) Time course of AKT and S6 phosphorylation of serum-starved PC-3 cells by RNASE4 (1 μg/ml). Left panels, immunoblots; right panels, quantification of p-AKT and p-S6 normalized to total AKT and S6 by Image J. (C) Effect of AKT inhibitor MK-2206, PI3K inhibitors LY294002 and Wortmannin, and mTOR inhibitor Rapamycin on RNASE4-induced PC-3 cell proliferation. Cells were pre-incubated with the inhibitors at the indicated concentrations for 1 hour prior to be stimulated by RNASE4 (1 μg/ml) for 3 days. Cell numbers were determined by MTT assay. (D) Human phospho-RTK antibody array analysis of starved PC-3 cells treated with or without 1 μg/ml RNASE4 for 5 minutes. (E) Time course of AXL phosphorylation stimulated by RNASE4 in PC-3 cells. Serum-starved PC-3 cells were treated with 1 μg/ml RNASE4 for different time. Cell lysates were analyzed for total AXL and phopho-AXL by immunoblotting. Left panels, immunoblots; right panel, quantification phospho-AXL normalized to total AXL by Image J analysis. (F) Effect of AXL inhibitor R428 on RNASE4-induced PC-3 cell proliferation. Serum-starved PC-3 cells were incubated with 1 or 3 μM R428 for 3 hours and then stimulated by 1 μg/ml of RNASE4 for 3 days. Cell numbers were determined by MTT assay. Data shown are means±SEM of a representative experiments in triplicates of 3 independent repeats. **P≤0.01 and ***P≤0.001, by unpaired two-tailed Student's t test.

[2] = test system: AXL phosphorylation in DU145 cells; experiment: AXL phosphorylation (phospho-RTK array, immunoblot); conditions: serum-starved DU145, 1 μg/ml protein
Experimental: as §2
Human Phospho-RTK Arrays were purchased from R&D Systems. […] Protein concentrations were quantified by Bradford Assay and 1.5 mg cell lysate was used per array. Pixel densities on were analyzed by ImageJ. […]

[3] = serum-starved DU145, 1 or 3 μM R428 3 hours

Molecule: Nc1nc(Nc2ccc3c(c2)CCC(N2CCCC2)CC3)nn1-c1cc2c(nn1)-c1ccccc1CCC2 (stereo not shown) [R428]
- RNASE4-induced AKT phosphorylation [1, 3]: inhibted
- RNASE4-induced S6 phosphorylation [1, 3]: inhibted
- RNASE4-induced cell proliferation (DU145 cells; serum-starved DU145, 1 or 3 μM R428 3 hours, then 1 μg/ml RNASE4 3 days): inhibted
- RNASE4-induced cell proliferation (PC-3 cells; serum-starved PC-3, 1 or 3 μM R428 3 hours, then 1 μg/ml RNASE4 3 days): inhibted

Molecule: NC1(c2ccc(-c3nc4ccn5c(=O)[nH]nc5c4cc3-c3ccccc3)cc2)CCC1 [MK-2206]
- RNASE4-induced AKT phosphorylation ([1]; DU145, inhibitor 1 hour): inhibited
- RNASE4-induced S6 phosphorylation ([1]; DU145, inhibitor 1 hour): inhibited
- RNASE4-induced cell proliferation (DU145 cells; serum-starved DU145, inhibitor 1 hour, then RNASE4 1 μg/ml three days): abolished
- RNASE4-induced cell proliferation (PC-3 cells; PC-3, inhibitor 1 hour, then RNASE4 1 μg/ml 3 days): abolished

Molecule: ANG: Angiogenin, another member of the pancreatic ribonuclease superfamily [reference compound]
- phosphorylation of AXL [2]: do not induce

B1: RNase A: member of the pancreatic ribonuclease superfamily (protein, UniProt P61823 27-150, looked up)
Ribonuclease pancreatic: KETAAAKFERQHMDSSTSAASSSNYCNQMMKSRNLTKDRCKPVNTFVHESLADVQAVCSQKNVACKNGQTNCYQSYSTMSITDCRETGSSKYPNCAYKTTQANKHIIVACEGNPYVPVHFDASV
- phosphorylation of AXL [2]: do not induce

From patent publication US11739161B2, “Methods for treating and diagnosing prostate cancer” (Tufts Medical Center, Inc., priority 2017, dated 2023)
